This is an account of results in patent publication US20140179681A1, “METHODS AND COMPOSITIONS OF TARGETED DRUG DEVELOPMENT” (priority 2010, published 2014).

Where two headings read alike, the source gives them in different places.

Experiment [1] has as its system epithelial carcinoma A431 cell line. Put plainly: MTT Cell Proliferation Assay, A431 cells. It counts as cell-based. In a few lines: (§1)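 Viability was measured by mitochondrial MTT reduction after cells were exposed to compound for 3 days in reduced-serum medium. Inhibition was calculated per plate against 0.5% DMSO controls.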
For experiment [2], the system named is MDBK line. Put plainly: MTT Cell Proliferation Assay, MDBK cells. The class given is cell-based, bovine. In short, it runs like this: as §1
The target of experiment [3] is T1, EGFR (Homo sapiens, UniProt P00533).
T1 construct: host or cells: A431
Put plainly: EGFR in-cell Western (ICW) screening protocol (EGFR inhibition assay). It counts as cell-based. To be noted: for ICW assay: Table 10, % Inhibition of EGF dependent EGFR phosphorylation in A431 cells, compound 125 μM in assay. In a few lines: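 Serum-starved A431 cells (2 h) were pretreated with compound for 4 h at 37° C, then stimulated with EGF (10 ng/ml final, or 6.6 or 12.5 ng/ml in some runs) for 10 min. After formaldehyde fixation, phospho-EGFR (Tyr1173, or Tyr1045 in some runs) and total EGFR were detected by in-cell Western immunostaining.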

Where [4] appears, read: first value of 'a/b (c)', taken as A431 cells, read-out: MTT Screen, first value of cell.
[5] abbreviates: second value of 'a/b (c)', taken as MDBK cells, read-out: MTT Screen, second value of cell.
Setting [6] is: Homo sapiens, A-431, first value of 'a/b (c)', taken as A431 cells, read-out: MTT Screen, first value of cell.
Where [7] appears, read: Bos taurus, MDBK, second value of 'a/b (c)', taken as MDBK cells, read-out: MTT Screen, second value of cell.
Where [8] appears, read: Homo sapiens, A-431, 72 h, Table 10, first of x/y(ratio): A431, three day treatment, unit not printed (doses in μM), read-out: MTT assay (first value).
[9] abbreviates: Bos taurus, MDBK, 72 h, Table 10, second of x/y(ratio): MDBK, three day treatment, unit not printed (doses in μM), read-out: MTT assay (second value).
The mark [10] stands for this setting: Table 10, second of x/y(ratio): MDBK, three day treatment, unit not printed (doses in μM), read-out: MTT assay (second value).
Where [11] appears, read: second value of 'a/b (c)', taken as MDBK cells.

T1 sequence (P00533 25-1210): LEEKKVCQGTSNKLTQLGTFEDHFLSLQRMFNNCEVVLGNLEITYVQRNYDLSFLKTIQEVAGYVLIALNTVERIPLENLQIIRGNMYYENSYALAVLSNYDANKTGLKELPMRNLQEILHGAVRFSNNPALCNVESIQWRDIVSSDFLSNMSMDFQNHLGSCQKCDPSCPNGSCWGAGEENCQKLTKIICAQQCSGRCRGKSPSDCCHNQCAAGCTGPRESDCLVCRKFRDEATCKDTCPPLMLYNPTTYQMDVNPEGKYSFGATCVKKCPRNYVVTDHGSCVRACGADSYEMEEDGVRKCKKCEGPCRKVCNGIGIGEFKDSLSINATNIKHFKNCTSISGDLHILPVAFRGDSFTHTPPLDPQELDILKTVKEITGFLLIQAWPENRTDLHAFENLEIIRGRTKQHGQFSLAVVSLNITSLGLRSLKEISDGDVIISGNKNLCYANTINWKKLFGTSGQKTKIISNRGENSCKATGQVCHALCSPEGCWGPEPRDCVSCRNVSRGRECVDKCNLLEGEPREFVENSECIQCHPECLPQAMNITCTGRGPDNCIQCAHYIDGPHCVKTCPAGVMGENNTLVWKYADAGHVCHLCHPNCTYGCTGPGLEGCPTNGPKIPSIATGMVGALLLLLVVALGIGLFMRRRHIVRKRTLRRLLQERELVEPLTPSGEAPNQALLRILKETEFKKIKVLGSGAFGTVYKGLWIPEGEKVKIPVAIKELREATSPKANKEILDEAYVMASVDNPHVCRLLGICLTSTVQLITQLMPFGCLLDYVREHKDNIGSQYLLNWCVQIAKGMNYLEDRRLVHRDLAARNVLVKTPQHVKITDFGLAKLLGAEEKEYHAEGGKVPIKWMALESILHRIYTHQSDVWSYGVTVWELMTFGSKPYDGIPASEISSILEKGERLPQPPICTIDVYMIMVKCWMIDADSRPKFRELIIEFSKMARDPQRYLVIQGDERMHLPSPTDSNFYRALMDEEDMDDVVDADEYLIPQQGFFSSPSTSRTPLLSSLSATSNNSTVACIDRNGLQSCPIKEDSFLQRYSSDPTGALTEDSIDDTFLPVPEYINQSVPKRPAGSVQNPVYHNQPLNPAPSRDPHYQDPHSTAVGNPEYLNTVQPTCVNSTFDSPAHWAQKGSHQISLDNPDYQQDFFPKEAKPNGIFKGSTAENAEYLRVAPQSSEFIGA

Consider `Cc1ccc(NS(=O)(=O)c2ccc(NC(=S)NC(=O)C3CCCCC3)cc2)cc1C` [AD4-11417], for which the IC50 was found to be 25.5 µM in experiment [1] (setting [4]) and 49.3 µM in experiment [2] (setting [5]). Further, the “ICW Screen (ICW Inhibition)” value in experiment [3] is on record as 40.711.
Take `COc1ccc(CC(=O)NC(=S)Nc2ccc(S(=O)(=O)Nc3ccc(C)c(C)c3)cc2)cc1` [AD4-11418]: the IC50 in experiment [1] (setting [6]) stood at 11.9 µM; in experiment [2] (setting [7]), 10.2 µM. Besides, the “ICW Screen (ICW Inhibition)” value in experiment [3] was determined as 34.067.
Take `Cc1ccc(NS(=O)(=O)c2ccc(NC(=S)NC(=O)CCc3ccccc3)cc2)cc1C` [AD4-11419]: the IC50 amounted to 31.3 µM in experiment [1] (setting [6]) and 38.8 µM in experiment [2] (setting [7]). The “ICW Screen (ICW Inhibition)” value in experiment [3] was found to be 40.289.
For `O=C(NC(=S)Nc1ccc(S(=O)(=O)N2CCCCC2)cc1)C1CCC1` [AD4-11421] the same measures were 41.5 µM, 43.5 µM and 37.181.
Take `Cc1ccc(NS(=O)(=O)c2ccc(NC(=S)NC(=O)C3CCC3)cc2)cc1C` [AD4-11422]: the IC50 in experiment [1] (setting [4]) is 29.5 µM; in experiment [2] (setting [5]) it was 9.23 µM. In experiment [3], the “ICW Screen (ICW Inhibition)” value is recorded as 44.982.
In the case of `Cc1cc(C)c(NS(=O)(=O)c2ccc(NC(=S)Nc3ccc(S(C)(=O)=O)cc3)cc2)c(C)c1` [AD4-11427], the IC50 stood at 12 µM in experiment [1] (setting [8]) and 14.5 µM in experiment [2] (setting [9]). In experiment [3], the ICW assay was determined as 44.904.
As for `COc1ccc(NC(=S)Nc2ccc(S(=O)(=O)Nc3c(C)cc(C)cc3C)cc2)cc1OC` [AD4-11428], the IC50 in experiment [1] (setting [8]) was 20.8 µM; in experiment [2] (setting [9]) it was 15.5 µM. The molecule also yielded an ICW assay in experiment [3] of 29.8673.
`CCN(c1ccccc1)S(=O)(=O)c1ccc(NC(=S)Nc2ccccc2)cc1` [AD4-11430]: the IC50 in experiment [1] (setting [8]) came out at 19.8 µM; in experiment [2] (setting [10]) it was 16.8 µM. This molecule yielded an ICW assay in experiment [3] of 27.1482.
Turning to `COc1ccc(NC(=S)Nc2ccc(S(=O)(=O)Nc3ccc(Cl)c(Cl)c3)cc2)cc1OC` [AD4-11432], the IC50 in experiment [1] (Table 10, first of x/y(ratio): A431, three day treatment, unit not printed (doses in μM), read-out: MTT assay (first value)) amounted to 7.8 µM; in experiment [2] (setting [10]), 7.82 µM. In experiment [3], the ICW assay amounted to 47.0006.
Regarding `CC(C)NS(=O)(=O)c1ccc(NC(=S)NC(=O)CCCCCOc2ccc(Cl)cc2Cl)cc1` [AD4-11538], the results for the IC50 in experiment [1] (setting [6]) and in experiment [2] (setting [7]) were 5.48 µM and 5.19 µM, respectively. In addition, in experiment [3], the “ICW Screen (ICW Inhibition)” value was determined as 34.978.
Turning to `CCc1nnc(NS(=O)(=O)c2ccc(NC(=S)NC(=O)/C=C/c3ccc(OC)cc3)cc2)s1` [AD4-11637], the “MTT Screen, first value of cell” value in experiment [1] (first value of 'a/b (c)', taken as A431 cells) is “non- conver- gent”. Further, the IC50 in experiment [2] (setting [7]) stood at 17.8 µM. The “ICW Screen (ICW Inhibition)” value in experiment [3] is 33.491.
On to `COc1cc(NS(=O)(=O)c2ccc(NC(=S)NC(=O)/C=C/c3ccc(C(C)C)cc3)cc2)nc(OC)n1` [AD4-11638], for which the figures for the IC50 in experiment [1] (setting [6]) and in experiment [2] (setting [7]) were 11.2 µM and 14.9 µM, respectively. In experiment [3], the “ICW Screen (ICW Inhibition)” value is reported as 68.754.
The matching figures for `Cc1cc(C)nc(NS(=O)(=O)c2ccc(NC(=S)NC(=O)/C=C/c3ccc(C(C)C)cc3)cc2)n1` [AD4-11642]: 9.89 µM, 9.46 µM and 40.922.
For `COc1ccc(/C=C/C(=O)NC(=S)Nc2ccc(S(=O)(=O)Nc3cc(OC)nc(OC)n3)cc2)cc1` [AD4-11645], the IC50 amounted to 45.6 µM in experiment [1] (setting [6]) and 47 µM in experiment [2] (setting [7]). Moreover, in experiment [3], the “ICW Screen (ICW Inhibition)” value was 66.452.
For `COc1ccc(/C=C/C(=O)NC(=S)Nc2ccc(S(=O)(=O)Nc3nc(C)cc(C)n3)cc2)cc1` [AD4-11646] the same measures were 19.4 µM, 21.1 µM and 37.949.
In the case of `Cc1cc(C)nc(NS(=O)(=O)c2ccc(NC(=S)NC(=O)/C=C/c3ccc(Cl)cc3)cc2)n1` [AD4-11648], the IC50 worked out at 46.7 µM in experiment [1] (setting [6]) and 45.1 µM in experiment [2] (setting [7]). Moreover, in experiment [3], the “ICW Screen (ICW Inhibition)” value worked out at 38.362.
For `COc1ccc(/C=C/C(=O)NC(=S)Nc2ccc(S(=O)(=O)Nc3cc(C)on3)cc2)cc1` [AD4-11867] the same measures were 51 µM, 48.1 µM and 32.432.
In the case of `COc1cc(NS(=O)(=O)c2ccc(NC(=S)NC(=O)/C=C/c3ccco3)cc2)ncn1` [AD4-11870], the IC50 in experiment [1] (setting [6]) worked out at 55.1 µM; in experiment [2] (setting [7]), 47.3 µM. Further, the “ICW Screen (ICW Inhibition)” value in experiment [3] is recorded as 30.849.
For `Cc1cc(C)nc(NS(=O)(=O)c2ccc(NC(=S)NC(=O)/C=C/c3ccc(F)cc3)cc2)n1` [AD4-11871] the same measures were 49.7 µM, 41.8 µM and 45.776.
In the case of `COc1cc(NS(=O)(=O)c2ccc(NC(=S)NC(=O)/C=C/c3ccc(C)cc3)cc2)nc(OC)n1` [AD4-11874], the IC50 in experiment [1] (setting [6]) amounted to 35 µM; in experiment [2] (setting [7]), 39 µM. In experiment [3], the “ICW Screen (ICW Inhibition)” value is given as 32.474.
The matching figures for `CCc1nnc(NS(=O)(=O)c2ccc(NC(=S)NC(=O)/C=C/c3cccs3)cc2)s1` [AD4-11880]: 47.3 µM, 47.3 µM and 37.604.
On to `COc1cc(NS(=O)(=O)c2ccc(NC(=S)NC(=O)/C=C/c3cccs3)cc2)nc(OC)n1` [AD4-11881], for which the IC50 came to 63.3 µM in experiment [1] (setting [6]) and 46.5 µM in experiment [2] (setting [7]). In experiment [3], the “ICW Screen (ICW Inhibition)” value amounted to 34.08.
In the case of `COc1ccc(/C=C/C(=O)NC(=S)Nc2ccc(S(=O)(=O)Nc3nc(C)cc(C)n3)cc2)cc1OC` [AD4-11883], in experiment [1] (setting [6]), the IC50 was found to be 19.5 µM. In experiment [2] (setting [11]), the “MTT Screen, second value of cell” value is on record as “non- conver- gent”. Moreover, the “ICW Screen (ICW Inhibition)” value in experiment [3] is 83.13.
With `Cc1cc(NS(=O)(=O)c2ccc(NC(=S)NC(=O)/C=C/c3ccccc3)cc2)no1` [AD4-11885], the results for the IC50 in experiment [1] (setting [4]) and in experiment [2] (setting [5]) were 37.8 µM and 48.3 µM, respectively. The “ICW Screen (ICW Inhibition)” value in experiment [3] was 32.38.
Consider `Cc1ccc(NS(=O)(=O)c2ccc(NC(=S)NC(=O)C(C)(C)C)cc2)c(C)c1` [AD4-11968], for which the IC50 in experiment [1] (setting [6]) was determined as 6.49 µM; in experiment [2] (setting [7]), 6.29 µM. Besides, the “ICW Screen (ICW Inhibition)” value in experiment [3] was found to be 45.095.
The matching figures for `COc1ccc(NS(=O)(=O)c2ccc(NC(=S)NC(=O)C(C)C)cc2)cc1` [AD4-11971]: 41.5 µM, 41.1 µM and 44.908.
For the molecule `CC(C)CC(=O)NC(=S)Nc1ccc(S(=O)(=O)Nc2ccccc2)cc1` [AD4-11975], the figures for the IC50 in experiment [1] (setting [6]) and in experiment [2] (setting [7]) were 17.5 µM and 17.2 µM, respectively. Further, the “ICW Screen (ICW Inhibition)” value in experiment [3] was 75.826.
In the case of `CC1CCN(S(=O)(=O)c2ccc(NC(=S)NC(=O)C(C)C)cc2)CC1` [AD4-11977], the IC50 in experiment [1] (setting [6]) was determined as 32.5 µM. The “MTT Screen, second value of cell” value in experiment [2] (setting [11]) is recorded as “non- conver- gent”. Besides, the “ICW Screen (ICW Inhibition)” value in experiment [3] is listed as 33.588.
On to `C=CCN(CC=C)S(=O)(=O)c1ccc(NC(=S)NC(=O)/C=C/c2cccs2)cc1` [AD4-11979], for which the IC50 in experiment [1] (setting [6]) is 9.31 µM; in experiment [2] (setting [7]), 16.2 µM. In addition, the “ICW Screen (ICW Inhibition)” value in experiment [3] amounted to 39.775.
The matching figures for `CCOC(=O)CCC(=O)NC(=S)Nc1ccc(S(=O)(=O)Nc2cc(OC)nc(OC)n2)cc1` [AD4-11980]: 49.8 µM, 24.4 µM and 25.235.
The matching figures for `CC(C)C(=O)NC(=S)Nc1ccc(S(=O)(=O)NC2CCCCC2)cc1` [AD4-11985]: 62.5 µM, 39.9 µM and 40.346.
The matching figures for `Cc1ccc(NS(=O)(=O)c2ccc(NC(=S)NC(=O)C(C)C)cc2)cc1C` [AD4-12003]: 11.5 µM, 12.8 µM and 32.007.
On to `Cc1ccc(NS(=O)(=O)c2ccc(NC(=S)NC(=O)CC(C)C)cc2)c(C)c1` [AD4-12010], for which the IC50 in experiment [1] (setting [6]) was found to be 6.68 µM; in experiment [2] (setting [7]) it was 6.16 µM. In experiment [3], the “ICW Screen (ICW Inhibition)” value was 33.772.
For `C=CCN(CC=C)S(=O)(=O)c1ccc(NC(=S)NC(=O)/C=C/c2ccc(OC)cc2)cc1` [AD4-12016] the same measures were 15.8 µM, 23.5 µM and 34.399.
The matching figures for `Cc1cc(C)cc(NS(=O)(=O)c2ccc(NC(=S)NC(=O)CC(C)C)cc2)c1` [AD4-12017]: 6.53 µM, 5.93 µM and 27.373.
For `Cc1ccc(NS(=O)(=O)c2ccc(NC(=S)NC(=O)CC(C)C)cc2)cc1C` [AD4-12024] the same measures were 6.77 µM, 6.34 µM and 31.244.
Turning to `CCC(c1ccccc1)S(=O)(=O)c1ccc(NC(=S)NC(=O)C(C)C)cc1` (stereo not drawn) [AD4-12029], the figures for the IC50 in experiment [1] (setting [6]) and in experiment [2] (setting [7]) were 25.3 µM and 51.1 µM, respectively. Also, in experiment [3], the “ICW Screen (ICW Inhibition)” value stood at 30.376.
With `COc1ccc(NS(=O)(=O)c2ccc(NC(=S)NC(=O)CC(C)C)cc2)cc1` [AD4-12040], the IC50 in experiment [1] (setting [6]) was 17.1 µM; in experiment [2] (setting [7]), 14.8 µM. For the same molecule, in experiment [3], the “ICW Screen (ICW Inhibition)” value was 47.822.
